What was measured:
Assay in all cases: relative viability (nuclei count vs DMSO), 5 days (fraction); higher = more cells survive
Cediranib + Lapatinib = compound: COc1cc2c(Oc3ccc4[nH]c(C)cc4c3F)ncnc2cc1OCCCN1CCCC1 [Cediranib] + CS(=O)(=O)CCNCc1ccc(-c2ccc3ncnc(Nc4ccc(OCc5cccc(F)c5)c(Cl)c4)c3c2)o1 [Lapatinib] (partner 2 µM)
Method in brief: (§1)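 Values are medians from duplicate plates. Each reflects relative viability, defined as the nuclei count of treated wells over that of vehicle wells. Lung cancer cell lines in 1536-well plates were pin-tool dosed one day after seeding with one drug alone or with a fixed anchor-drug dose plus five library-drug doses (not always all listed) in √10 steps, then fixed, stained and imaged at 4× after 5 days.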

Decitabine + Alpelisib = compound: Nc1ncn([C@H]2C[C@H](O)[C@@H](CO)O2)c(=O)n1 [Decitabine] + Cc1nc(NC(=O)N2CCC[C@H]2C(N)=O)sc1-c1ccnc(C(C)(C)C(F)(F)F)c1 [Alpelisib] (partner 2 µM)
Method in brief: as §1

[1] = compound: O=C(C[C@H]1NCCC[C@@H]1O)Cn1cnc2cc(Br)c(Cl)cc2c1=O (racemic) [Halofuginone] + C[C@@H](Oc1cc(-c2cnn(C3CCNCC3)c2)cnc1N)c1c(Cl)ccc(F)c1Cl [Crizotinib] (partner 1 µM)
Method in brief: as §1

[2] = compound: O=C(C[C@H]1NCCC[C@@H]1O)Cn1cnc2cc(Br)c(Cl)cc2c1=O (racemic) [Halofuginone] + Cc1cc(Nc2cc(N3CCN(C)CC3)nc(Sc3ccc(NC(=O)C4CC4)cc3)n2)n[nH]1 [Tozasertib] (partner 0.1 µM)
Method in brief: as §1

Cell Line	relative viability (Cediranib + Lapatinib; first compound 0.04 µM)	relative viability (Cediranib + Lapatinib; first compound 0.1265 µM)	relative viability (Cediranib + Lapatinib; first compound 0.4 µM)	relative viability (Cediranib + Lapatinib; first compound 1.265 µM)	relative viability (Cediranib + Lapatinib; first compound 4 µM)	relative viability (Decitabine + Alpelisib; first compound 0.04 µM)	relative viability (Decitabine + Alpelisib; first compound 0.1265 µM)	relative viability (Decitabine + Alpelisib; first compound 0.4 µM)	relative viability (Decitabine + Alpelisib; first compound 1.265 µM)	relative viability (Decitabine + Alpelisib; first compound 4 µM)	relative viability ([1]; first compound 0.001 µM)	relative viability ([1]; first compound 0.003162 µM)	relative viability ([1]; first compound 0.01 µM)	relative viability ([1]; first compound 0.03162 µM)	relative viability ([1]; first compound 0.1 µM)	relative viability ([2]; first compound 0.001 µM)	relative viability ([2]; first compound 0.003162 µM)	relative viability ([2]; first compound 0.01 µM)	relative viability ([2]; first compound 0.03162 µM)	relative viability ([2]; first compound 0.1 µM)
NCI-H1651	0.819	0.919	0.825	0.668	0.855	0.834	0.902	0.861	0.718	0.633	0.922	0.899	0.88	0.848	0.798	1.03	0.773	0.702	0.471	0.352
NCI-H1666	0.678	0.339	0.554	0.541	0.69	0.797	0.753	0.606	0.489	0.473	1.02	1.02	0.948	0.913	0.582	0.656	0.644	0.56	0.596	0.704
NCI-H1734	0.913	0.989	1.07	0.826	1.21	0.5	0.615	0.535	0.399	0.324	0.738	0.718	0.67	0.659	0.277	0.226	0.267	0.278	0.291	0.251
NCI-H1755	1.14	0.778	1.01	1.05	0.941	0.847	0.858	0.825	0.511	0.348	0.916	0.884	0.806	0.869	0.348	0.591	0.569	0.567	0.591	0.461
NCI-H1915	1.01	0.731	0.924	0.969	0.983	0.475	0.301	0.272	0.227	0.247	0.897	0.954	0.813	0.894	0.73	0.463	0.462	0.416	0.448	0.299
NCI-H1944	0.969	0.8	0.78	0.705	0.908	0.874	0.797	0.725	0.473	0.435	1.1	1.19	1.11	1.05	0.803	0.264	0.282	0.243	0.237	0.196
NCI-H1975	1.06	1.26	0.801	0.905	0.835	0.414	0.357	0.318	0.292	0.275	1.12	0.91	1.01	0.628	0.184	1.04	0.848	0.737	0.354	0.13
NCI-H1993	0.8	0.675	0.815	0.755	0.887	0.775	0.725	0.629	0.699	0.634	1.05	0.921	0.95	0.89	0.588	0.56	0.52	0.565	0.545	0.532
NCI-H2009	0.882	0.239	0.94	0.899	1.15	1	0.88	0.593	0.413	0.303	1.15	1.09	1.06	0.923	0.668	0.897	0.754	0.746	0.659	0.366
NCI-H2023	0.852	0.0771	0.716	0.654	0.878	0.438	0.461	0.305	0.214	0.188	0.847	0.649	0.701	0.493	0.0689	0.46	0.294	0.399	0.178	0.134
NCI-H2085	0.846	0.791	0.839	0.725	0.774	0.767	0.617	0.554	0.379	0.433	0.994	0.82	0.776	0.831	0.52	0.959	0.877	0.729	0.847	0.716
NCI-H2087	1.08	0.825	1.01	0.984	1.07	0.683	0.564	0.487	0.338	0.36	0.738	0.902	0.77	0.851	0.851	0.28	0.322	0.251	0.23	0.114
NCI-H2126	0.749	0.595	0.715	0.55	0.741	0.673	0.659	0.521	0.521	0.424	1.02	1.03	0.998	1.02	0.987	0.918	0.845	0.859	0.793	0.62
NCI-H2170	0.295	0.277	0.243	0.232	0.268	0.558	0.674	0.616	0.43	0.315	1.27	1.34	1.21	1.21	1	0.731	0.678	0.812	0.679	0.728
NCI-H2228	1.06	1.07	0.928	1.18	1.17	0.479	0.41	0.453	0.298	0.201	0.45	0.658	0.411	0.218	0.177	0.321	0.324	0.19	0.133	0.0815
NCI-H2347	1.07	0.512	0.916	0.909	0.964	0.898	0.848	0.675	0.597	0.665	0.677	0.72	0.81	0.736	0.551	0.558	0.521	0.662	0.692	0.418

From the supplement of paper PMC10307832
